# Source: BindingDB's records for patent US20230391786 (Eli Lilly, 2023)
# Target: Cyclic GMP-AMP synthase (Homo sapiens, UniProt Q8N884)
# Test: In Vitro Inhibition Assay
# Experimental: In vitro inhibition assay of cGAS activity: Add a 5 μL mixture containing 10 mM Tris-Cl pH 7.5, 50 mM NaCl, 5 mM MgCl2, 1 mM DTT, 0.01% Triton X-100, 60 nM 75-bp dsDNA, […], 50 μM GTP, 10 nM of recombinant human cGAS, and serial dilutions of a test compound in DMSO to a 384-well plate and incubate at room temperature for 3 hours. Quench the reaction by the addition of 100 μL of stop solution containing 0.1% formic acid and 0.1 μM internal standard (3′3′-difluoro cGAMP). Measure the amount of cGAMP produced by RapidFire 365 mass spectrometry and evaluate inhibitory effect of a compound by plotting percent specific inhibition of cGAMP production against log concentration of the test compound.
# Cyclic GMP-AMP synthase, sequence (Q8N884 whole entry): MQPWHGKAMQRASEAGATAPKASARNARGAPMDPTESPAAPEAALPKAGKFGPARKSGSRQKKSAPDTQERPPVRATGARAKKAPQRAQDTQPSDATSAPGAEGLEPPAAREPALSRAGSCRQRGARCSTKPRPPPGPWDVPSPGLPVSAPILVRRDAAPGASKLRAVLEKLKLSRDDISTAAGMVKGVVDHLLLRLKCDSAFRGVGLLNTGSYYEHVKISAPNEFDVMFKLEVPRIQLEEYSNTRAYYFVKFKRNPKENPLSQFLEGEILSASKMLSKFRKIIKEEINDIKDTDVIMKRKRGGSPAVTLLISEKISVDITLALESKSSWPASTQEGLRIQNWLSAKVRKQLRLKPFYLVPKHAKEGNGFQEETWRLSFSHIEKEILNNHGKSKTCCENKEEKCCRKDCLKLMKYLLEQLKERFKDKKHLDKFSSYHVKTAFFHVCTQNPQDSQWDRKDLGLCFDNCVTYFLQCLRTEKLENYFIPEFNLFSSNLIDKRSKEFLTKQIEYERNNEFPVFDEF
row,Compound,IC50 [nM]
1,"O=C(CCn1cncn1)N1CCn2c(c(-c3cn[nH]c3)c3ccc(Cl)c(Cl)c32)C1 [US20230391786, Example 49]",83.9
2,"Cn1ncnc1COCC(=O)N1CCn2c(c(-c3cn[nH]c3)c3c(OCC#N)cc(Cl)c(Cl)c32)C1 [US20230391786, Example 181]",16.5
3,"OCCn1cc(-n2cc(-c3cn[nH]c3)c3ccc(Cl)cc32)nn1 [US20230391786, Example 229]",96.5
4,"NC1CCn2c1c(-c1cn[nH]c1)c1ccc(Cl)c(Cl)c12 (centres undefined) [US20230391786, Example 241]",62.5
